Reference: ChEMBL document CHEMBL5055656, “Synthesis of novel indole-thiazolidinone hybrid structures as promising scaffold with anticancer potential” (Bioorg Med Chem, 2021)
Calls of active or inactive are those of the source. The calls are words filed in the database; no cut-off is given here.

Assays:
WM793 = assay: Cytotoxicity against human WM793 cells assessed as cell growth inhibition measured after 72 hrs by MTT assay; type: functional
HepG2 [1] = assay: Induction of apoptosis in human HepG2 cells assessed as increase in Cdk2 expression at 1.6 uM after 24 hrs by Western blot analysis; type: functional, cell-based
HCT-116 [2] = assay: Induction of DNA damage in human HCT-116 cells assessed as increase in olive tail moment incubated at 0.5 uM measured after 24 hrs by alkaline Comet assay; type: functional
A549 = assay: Cytotoxicity against human A549 cells assessed as cell growth inhibition measured after 72 hrs by MTT assay; type: functional
HCT-116 [3] = assay: Induction of apoptosis in human HCT-116 cells assessed as activation of cleaved PARP1 expression at 0.7 uM incubated for 24 hrs by Western blot analysis; type: functional, cell-based
[4] = Cytotoxicity against human HaCaT cells assessed as cell growth inhibition measured after 72 hrs by MTT assay; type: cell-based
HepG2 [5] = assay: Induction of apoptosis in human HepG2 cells assessed as effect on phospho-Rb expression at 1.6 uM after 24 hrs by Western blot analysis; type: functional, cell-based
HCT-116 [6] = assay: Induction of cell cycle arrest in human HCT-116 cells assessed as decrease in phospho-Rb expression measured after 24 hrs by Western blot analysis; type: functional, cell-based
MCF7 [7] = assay: Cytotoxicity against human MCF7 cells assessed as cell growth inhibition measured after 72 hrs by MTT assay; type: functional
HCT-116 [8] = assay: Induction of DNA damage in human HCT-116 cells assessed as increase in tail length incubated at 0.5 uM measured after 24 hrs by alkaline Comet assay; type: functional
HepG2 [9] = assay: Induction of DNA damage in human HepG2 cells assessed as increase in tail length incubated at 0.5 uM measured after 24 hrs by alkaline Comet assay; type: functional
BALB/3T3 [10] = assay: Induction of DNA damage in mouse BALB/3T3 cells assessed as increase in tail length incubated at 1.6 uM measured after 24 hrs by alkaline Comet assay; type: cell-based; conditions: balb/3t3, 24 h
MCF7 [11] = assay: Induction of apoptosis in human MCF7 cells assessed as activation of cleaved PARP1 expression at 0.7 uM incubated for 24 hrs by Western blot analysis; type: functional, cell-based
HepG2 [12] = assay: Cytotoxicity against human HepG2 cells assessed as cell growth inhibition measured after 72 hrs by MTT assay; type: functional
BALB/3T3 [13] = assay: Induction of DNA damage in mouse BALB/3T3 cells assessed as increase in olive tail moment incubated at 1.6 uM measured after 24 hrs by alkaline Comet assay; type: cell-based; conditions: balb/3t3, 24 h
HepG2 [14] = assay: Induction of DNA damage in human HepG2 cells assessed as increase in olive tail moment incubated at 0.5 uM measured after 24 hrs by alkaline Comet assay; type: functional
Salmon testes DNA [15] = assay: Displacement of methyl green from salmon sperm DNA at 10 uM measured after 2 hrs by fluorescence plate reader method relative to control; type: cell-based; conditions: Salmo salar, Spermatozoa
HCT-116 [16] = assay: Cytotoxicity against human HCT-116 cells assessed as cell growth inhibition measured after 72 hrs by MTT assay; type: functional
THP-1 = assay: Cytotoxicity against human THP-1 cells assessed as cell growth inhibition measured after 72 hrs by MTT assay; type: functional
HepG2 [17] = assay: Induction of apoptosis in human HepG2 cells assessed as increase in phospho-Chk2 expression at 1.6 uM after 24 hrs by Western blot analysis; type: functional, cell-based
[18] = Cytotoxicity against mouse BALB/3T3 cells assessed as cell growth inhibition measured after 72 hrs by MTT assay; type: cell-based
HeLa = assay: Cytotoxicity against human HeLa cells assessed as cell growth inhibition measured after 72 hrs by MTT assay; type: functional
Salmon testes DNA [19] = assay: Displacement of methyl green from salmon sperm DNA at 1 uM measured after 2 hrs by fluorescence plate reader method relative to control; type: cell-based; conditions: Salmo salar, Spermatozoa
HepG2 [20] = assay: Induction of apoptosis in human HepG2 cells assessed as increase in Bax expression at 1.6 uM after 24 hrs by Western blot analysis; type: functional, cell-based
[21] = Selectivity index, ratio of GI50 for mouse BALA/3T3 cells to GI50 for human MCF7 cells; type: toxicity; conditions: BALA/3T3 cells versus MCF7 cells, read-out: RatioGI50
[22] = Selectivity index, ratio of GI50 for mouse BALA/3T3 cells to GI50 for human HepG2 cells; type: toxicity; conditions: BALA/3T3 cells versus HepG2 cells, read-out: RatioGI50
[23] = Selectivity index, ratio of GI50 for mouse BALA/3T3 cells to GI50 for human HeLa cells; type: toxicity; conditions: BALA/3T3 cells versus HeLa cells, read-out: RatioGI50
[24] = Selectivity index, ratio of GI50 for human HaCaT cells to GI50 for human WM793 cells
[25] = Selectivity index, ratio of GI50 for human HaCaT cells to GI50 for human THP-1 cells
[26] = Selectivity index, ratio of GI50 for human HaCaT cells to GI50 for human HepG2 cells; type: toxicity; conditions: HaCaT cells versus HepG2 cells, read-out: RatioGI50
[27] = Selectivity index, ratio of GI50 for mouse BALA/3T3 cells to GI50 for human WM793 cells
[28] = Selectivity index, ratio of GI50 for human HaCaT mouse BALA/3T3 cells to GI50 for human A549 cells; type: toxicity; conditions: read-out: RatioGI50
[29] = Selectivity index, ratio of GI50 for human HaCaT cells to GI50 for human HeLa cells; type: toxicity; conditions: HaCaT cells versus HeLa cells, read-out: RatioGI50
[30] = Selectivity index, ratio of GI50 for human HaCaT cells to GI50 for human MCF7 cells; type: toxicity; conditions: HaCaT cells versus MCF7 cells, read-out: RatioGI50
[31] = Cytotoxicity against human HaCaT cells assessed as cell growth inhibition at 100 uM measured after 72 hrs by MTT assay relative to control; type: cell-based; conditions: read-out: Activity
[32] = Selectivity index, ratio of GI50 for mouse BALA/3T3 cells to GI50 for human HCT-116 cells; type: toxicity; conditions: BALA/3T3 cells versus HCT-116 cells, read-out: RatioGI50
[33] = Selectivity index, ratio of GI50 for human HaCaT cells to GI50 for human A549 cells; type: toxicity; conditions: HaCaT cells versus A549 cells, read-out: RatioGI50
[34] = Selectivity index, ratio of GI50 for mouse BALA/3T3 cells to GI50 for human THP-1 cells
[35] = Selectivity index, ratio of GI50 for human HaCaT cells to GI50 for human HCT-116 cells; type: toxicity; conditions: HaCaT cells versus HCT-116 cells, read-out: RatioGI50

| SMILES | GI50 (WM793) | GI50 (A549) | GI50 at 72 h [4] | GI50 (MCF7 [7]) | GI50 (HepG2 [12]) | GI50 (HCT-116 [16]) | GI50 (THP-1) | GI50 at 72 h [18] | GI50 (HeLa) | selectivity ratio [21] | selectivity ratio [22] | selectivity ratio [23] | RatioGI50 [24] | RatioGI50 [25] | selectivity ratio [26] | RatioGI50 [27] | selectivity ratio [28] | selectivity ratio [29] | selectivity ratio [30] | selectivity ratio [32] | other results |
| --- | --- | --- | --- | --- | --- | --- | --- | --- | --- | --- | --- | --- | --- | --- | --- | --- | --- | --- | --- | --- | --- |
| COc1cccc2c1C(=O)c1c(O)c3c(c(O)c1C2=O)C[C@@](O)(C(=O)CO)C[C@@H]3O[C@H]1C[C@H](N)[C@H](O)[C@H](C)O1 [DOXORUBICIN] | 0.6 µM | 0.6 µM | 0.9 µM | 0.4 µM | 0.7 µM | 0.6 µM | 0.6 µM | 0.6 µM | 0.3 µM | – | – | – | – | – | – | – | – | – | – | – | Activity (HepG2 [1]): Active; Activity (HCT-116 [2]): 10.3; Activity (HCT-116 [3]): Active; Activity (HepG2 [5]): Active; Activity (HCT-116 [6]): Active; Activity (HCT-116 [8]): 28.4%; Activity (HepG2 [9]): 23.4%; Activity (BALB/3T3 [10]): 15.9%; Activity (MCF7 [11]): Active; Activity (BALB/3T3 [13]): 5.9; Activity (HepG2 [14]): 6.92; Activity (Salmon testes DNA [15]): 69.7%; Activity (HepG2 [17]): Active; Activity (Salmon testes DNA [19]): 29.2%; Activity (HepG2 [20]): Active |
| COC(=O)c1[nH]c2ccc(F)cc2c1/C=C1\SC(N)=NC1=O | 98.6 µM | 62.7 µM | > 100 µM | 67.7 µM | 49.8 µM | 9.5 µM | 100 µM | 30.3 µM | 93.3 µM | 0.96 | 1.31 | 0.7 | 0.66 | 0.65 | 1.31 | 0.66 | 1.04 | 0.7 | 0.96 | 6.86 | inhibition at 72 h, 100 µM [31]: 20.2%; selectivity ratio [33]: 1.04; RatioGI50 [34]: 0.65; selectivity ratio [35]: 6.86 |
| COC(=O)c1[nH]c2ccc(F)cc2c1/C=C1\NC(=S)NC1=O | 84.2 µM | 49.2 µM | > 100 µM | 63.7 µM | 33.9 µM | 53 µM | 58.3 µM | > 100 µM | 58.1 µM | 1.57 | 2.95 | 1.72 | 1.19 | 1.72 | 2.95 | 1.19 | 2.03 | 1.72 | 1.57 | 1.89 | inhibition at 72 h, 100 µM [31]: 43.3%; selectivity ratio [33]: 2.03; RatioGI50 [34]: 1.72; selectivity ratio [35]: 1.89 |
| COC(=O)c1[nH]c2ccc(F)cc2c1/C=C1\SC(=O)NC1=O | 83.1 µM | 25.4 µM | > 100 µM | 80.7 µM | 29.8 µM | 67.6 µM | 45 µM | > 100 µM | 47.6 µM | 1.24 | 3.36 | 2.1 | 1.2 | 1.72 | 3.36 | 1.2 | 3.94 | 2.1 | 1.24 | 1.48 | inhibition at 72 h, 100 µM [31]: 43.4%; selectivity ratio [33]: 3.94; RatioGI50 [34]: 1.72; selectivity ratio [35]: 1.48 |
| COC(=O)c1[nH]c2ccc(F)cc2c1/C=C1\SC(=O)NC1=S | 83.1 µM | 8.7 µM | 83.1 µM | 52.5 µM | 60.9 µM | 45.1 µM | 28.5 µM | 89.2 µM | 55 µM | 1.64 | 1.41 | 1.57 | 1.04 | 3.02 | 1.41 | 1.04 | 9.9 | 1.57 | 1.64 | 1.91 | selectivity ratio [33]: 9.9; RatioGI50 [34]: 3.02; selectivity ratio [35]: 1.91 |
| COC(=O)c1[nH]c2ccc(F)cc2c1C=O | 82.5 µM | 44.8 µM | 69.3 µM | > 100 µM | > 100 µM | > 100 µM | 7.7 µM | 64 µM | 100 µM | 0.67 | 0.67 | 0.67 | 0.81 | 8.66 | 0.67 | 0.81 | 1.49 | 0.67 | 0.67 | 0.67 | selectivity ratio [33]: 1.49; RatioGI50 [34]: 8.66; selectivity ratio [35]: 0.67 |
